Results as given in patent US7728001B2 (priority 2004, dated 2010).
Read-outs that look alike come from different tables or passages of the source.

Columns and labels:
opioid receptors = type: biochemical
rhesus monkeys [1] = conditions: nonhuman primates, recent report; cited from earlier work
humans = conditions: cited from earlier work
[2] = biological target: serotonin 5-HT2A receptor (Homo sapiens, UniProt P28223); conditions: cited from earlier work
κ receptors = κ receptors (Homo sapiens, UniProt P41145); test: biochemical; type: binding
Sequence of κ receptors (P41145 whole entry): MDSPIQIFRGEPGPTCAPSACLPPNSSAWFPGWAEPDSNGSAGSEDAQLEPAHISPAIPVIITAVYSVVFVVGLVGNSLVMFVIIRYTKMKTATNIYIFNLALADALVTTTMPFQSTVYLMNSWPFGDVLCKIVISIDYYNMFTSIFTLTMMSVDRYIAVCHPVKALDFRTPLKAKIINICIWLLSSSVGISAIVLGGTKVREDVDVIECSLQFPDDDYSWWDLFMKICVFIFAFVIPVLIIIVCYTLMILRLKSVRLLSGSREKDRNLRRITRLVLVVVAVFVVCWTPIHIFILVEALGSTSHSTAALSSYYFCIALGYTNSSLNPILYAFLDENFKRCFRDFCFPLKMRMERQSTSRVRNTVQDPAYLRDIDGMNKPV

rhesus monkeys [3] = test: behavioral / discriminative stimulus effects, generalization to U69,593; type: in vivo; parameters: generalization to U69,593: dose or concentration left out as unconfirmed
Experimental: In an effort to further understand the in vivo pharmacology of these derivatives, propionate 9 was evaluated for behavioral effects in nonhuman primates in a pilot study. […] Propionate 9 generalized to U69,593 in only one of two rhesus monkeys tested, up to the highest dose that could be administered ([…], s.c.).

μ receptors = μ receptors (Homo sapiens, UniProt P35372); test: opioid receptor binding affinity, [^125I]IOXY as radioligand (μ); conditions: for Ki: [^125I]IOXY radioligand
Sequence of μ receptors (P35372 whole entry): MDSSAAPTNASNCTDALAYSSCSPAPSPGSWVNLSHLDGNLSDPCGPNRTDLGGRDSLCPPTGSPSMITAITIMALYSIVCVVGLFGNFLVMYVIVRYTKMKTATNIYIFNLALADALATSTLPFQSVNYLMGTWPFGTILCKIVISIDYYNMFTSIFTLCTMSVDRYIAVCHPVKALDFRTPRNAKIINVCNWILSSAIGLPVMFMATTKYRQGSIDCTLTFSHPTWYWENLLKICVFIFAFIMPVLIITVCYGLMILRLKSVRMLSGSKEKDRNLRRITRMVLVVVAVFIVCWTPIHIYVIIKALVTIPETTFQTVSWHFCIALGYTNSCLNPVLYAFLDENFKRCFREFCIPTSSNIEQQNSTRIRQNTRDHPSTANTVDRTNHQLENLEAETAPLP

δ receptors = δ receptors (Homo sapiens, UniProt P41143); test: biochemical; type: binding
Sequence of δ receptors (P41143 whole entry): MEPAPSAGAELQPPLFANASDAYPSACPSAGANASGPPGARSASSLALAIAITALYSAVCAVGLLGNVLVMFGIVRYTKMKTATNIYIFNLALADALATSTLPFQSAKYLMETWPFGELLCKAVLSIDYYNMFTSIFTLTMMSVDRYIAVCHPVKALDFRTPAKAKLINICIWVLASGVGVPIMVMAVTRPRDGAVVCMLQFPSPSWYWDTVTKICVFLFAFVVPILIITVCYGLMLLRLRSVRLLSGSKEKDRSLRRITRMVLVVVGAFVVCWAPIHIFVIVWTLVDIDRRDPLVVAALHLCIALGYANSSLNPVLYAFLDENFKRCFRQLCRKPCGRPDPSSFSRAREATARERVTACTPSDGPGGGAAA

Sequence of serotonin 5-HT2A receptor (P28223 whole entry): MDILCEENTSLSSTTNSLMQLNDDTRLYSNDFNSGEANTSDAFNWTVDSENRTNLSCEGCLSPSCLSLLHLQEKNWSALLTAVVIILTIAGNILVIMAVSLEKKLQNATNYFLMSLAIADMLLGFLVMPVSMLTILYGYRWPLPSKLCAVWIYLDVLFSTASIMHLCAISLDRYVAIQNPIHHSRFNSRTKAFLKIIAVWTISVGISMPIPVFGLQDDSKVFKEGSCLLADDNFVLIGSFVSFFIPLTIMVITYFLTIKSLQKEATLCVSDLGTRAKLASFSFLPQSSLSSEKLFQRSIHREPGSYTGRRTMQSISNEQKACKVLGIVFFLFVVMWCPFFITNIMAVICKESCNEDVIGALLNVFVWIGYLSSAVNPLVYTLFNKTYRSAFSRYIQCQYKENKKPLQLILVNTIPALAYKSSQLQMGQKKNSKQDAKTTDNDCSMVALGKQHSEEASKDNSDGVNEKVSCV

COC(=O)[C@@H]1C[C@H](OC(C)=O)C(=O)[C@H]2[C@@]1(C)CC[C@H]1C(=O)O[C@H]([C@]3(O)[C@H](OC)O[C@H](OC)[C@H]3O)C[C@]21C
melting point: 272 to 274 °C

COC(=O)[C@@H]1C[C@H](OC(C)=O)C(=O)[C@H]2[C@@]1(C)CC[C@H]1C(=O)O[C@H]([C@]3(O)[C@@H](OC)O[C@@H](OC)[C@H]3O)C[C@]21C
melting point: 151 to 153 °C

COC(=O)[C@@H]1C[C@H](OC(C)=O)C(=O)[C@H]2[C@@]1(C)CC[C@H]1C(=O)O[C@H](c3ccoc3)C[C@]21C [Compound 1, Salvinorin A]
functional activity (opioid receptors; [^35S]GTPγS assay): agonists | discriminative stimulus effect (rhesus monkeys [1]): discriminative stimulus effect similar to the high efficacy κ agonist U69,593 | smoked dose producing profound hallucinations (humans): 200 to 500 µg | activity at the serotonin 5-HT2A receptor [2]: no activity

CCC(=O)O[C@H]1C[C@@H](C(=O)OC)[C@]2(C)CC[C@H]3C(=O)O[C@H](c4ccoc4)C[C@]3(C)[C@H]2C1=O [Compound 9, (2S,4aR,6aR,7R,9S,10aS,10bR)-9-(propionyloxy)-2-(3-furanyl)dodecahydro-6a,10b-dimethyl-4,10-dioxo-2H-naphtho[2,1-c]pyran-7-carboxylic acid methyl ester]
Ki (κ receptors; read-out: Ki at κ receptors): 0.0018 µM | functional activity (opioid receptors): agonists | behavioral effect (rhesus monkeys [3]; nonhuman primates, pilot study, preliminary results): partial κ agonist | generalization to U69,593 (rhesus monkeys [3]; rhesus monkeys, up to highest dose, s.c.): one of two

COC(=O)[C@@H]1C[C@H](OC(=O)C(C)C)C(=O)[C@H]2[C@@]1(C)CC[C@H]1C(=O)O[C@H](c3ccoc3)C[C@]21C [Compound 10, (2S,4aR,6aR,7R,9S,10aS,10bR)-9-(isobutyryloxy)-2-(3-furanyl)-dodecahydro-6a,10b-dimethyl-4,10-dioxo-2H-naphtho[2,1-c]pyran-7-carboxylic acid methyl ester]
Ki (κ receptors): 2.98 µM | fold reduction of affinity at κ receptors compared to 9 (κ receptors): approximately 10 fold | Ki (κ receptors; read-out: Ki at κ receptors): 0.019 µM

C=C(C)C(=O)O[C@H]1C[C@@H](C(=O)OC)[C@]2(C)CC[C@H]3C(=O)O[C@H](c4ccoc4)C[C@]3(C)[C@H]2C1=O [Compound 11, (2S,4aR,6aR,7R,9S,10aS,10bR)-9-(2-methylacryloyloxy)-2-(3-furanyl)-dodecahydro-6a,10b-dimethyl-4,10-dioxo-2H-naphtho[2,1-c]pyran-7-carboxylic acid methyl ester]
Ki (κ receptors): 0.26 µM | fold increase in affinity, printed 'at κ receptors', compared to 10 (κ receptors): ~11 fold | Ki (κ receptors; read-out: Ki at κ receptors): 0.042 µM

COC(=O)C(=O)O[C@H]1C[C@@H](C(=O)OC)[C@]2(C)CC[C@H]3C(=O)O[C@H](c4ccoc4)C[C@]3(C)[C@H]2C1=O [Compound 12, Oxalic acid methyl ester (2S,4aR,6aR,7R,9S,10aS,10bR)-7-carbomethoxy-2-(3-furanyl)dodecahydro-6a,10b-dimethyl-4,10-dioxo-2H-naphtho[2,1-c]pyran-9-yl ester]
fold loss of affinity at κ receptors compared to 11 (κ receptors): 10 fold | Ki (κ receptors; read-out: Ki at κ receptors): 0.43 µM

COC(=O)[C@@H]1C[C@H](OC(=O)c2ccccc2)C(=O)[C@H]2[C@@]1(C)CC[C@H]1C(=O)O[C@H](c3ccoc3)C[C@]21C [Compound 13, (2S,4aR,6aR,7R,9S,10aS,10bR)-9-(benzoyloxy)-2-(3-furanyl)-dodecahydro-6a,10b-dimethyl-4,10-dioxo-2H-naphtho[2,1-c]pyran-7-carboxylic acid methyl ester]
fold loss/decrease in affinity at κ receptors compared to 1 (κ receptors): 47 fold | Ki (κ receptors; read-out: Ki at κ receptors): 0.09 µM | selectivity for μ opioid receptor (μ receptors): binds selectively to the μ opioid receptor | Ki (μ receptors): 0.012 µM | functional activity (opioid receptors): agonists

COC(=O)[C@@H]1C[C@H](OC(=O)c2cccnc2)C(=O)[C@H]2[C@@]1(C)CC[C@H]1C(=O)O[C@H](c3ccoc3)C[C@]21C [Compound 14, Nicotinic acid (2S,4aR,6aR,7R,9S,10aS,10bR)-7-carbomethoxy-2-(3-furanyl)dodecahydro-6a,10b-dimethyl-4,10-dioxo-2H-naphtho[2,1-c]pyran-9-yl ester]
Ki (κ receptors; read-out: Ki at κ receptors): 1.93 µM | Ki (μ receptors): 0.073 µM | fold decrease in affinity at μ receptors compared to 13 (μ receptors; ratio of Ki vs. 13): 21 fold

COC(=O)[C@@H]1C[C@H](OS(C)(=O)=O)C(=O)[C@H]2[C@@]1(C)CC[C@H]1C(=O)O[C@H](c3ccoc3)C[C@]21C [Compound 15, (2S,4aR,6aR,7R,9S,10aS,10bR)-9-(methanesulfonyloxy)-2-(3-furanyl)-dodecahydro-6a,10b-dimethyl-4,10-dioxo-2H-naphtho[2,1-c]pyran-7-carboxylic acid methyl ester]
Ki (κ receptors; read-out: Ki at κ receptors): 0.0023 µM | functional activity (opioid receptors): agonists

COC(=O)[C@@H]1C[C@H](O[Si](C)(C)C)C(=O)[C@H]2[C@@]1(C)CC[C@H]1C(=O)O[C@H](c3ccoc3)C[C@]21C [Compound 16, (2S,4aR,6aR,7R,9S,10aS,10bR)-9-(trimethylsilanyloxy)-2-(3-furanyl)-dodecahydro-6a,10b-dimethyl-4,10-dioxo-2H-naphtho[2,1-c]pyran-7-carboxylic acid methyl ester]
fold loss/decrease in affinity at κ receptors compared to 1 (κ receptors): 847 fold | Ki (κ receptors; read-out: Ki at κ receptors): 1.61 µM

COC(=O)[C@@H]1C[C@H](O)[C@H](O)[C@H]2[C@@]1(C)CC[C@H]1C(=O)O[C@H](c3ccoc3)C[C@]21C [Compound 18, (2S,4aR,6aR,7R,9S,10R,10aS,10bR)-9,10-(dihydroxy)-2-(3-furanyl)dodecahydro-6a,10b-dimethyl-4-oxo-2H-naphtho[2,1-c]pyran-7-carboxylic acid methyl ester]
affinity at μ receptors (μ receptors): low affinity | affinity at δ receptors (δ receptors): low affinity

COC(=O)[C@@H]1C[C@H](O)[C@H](O)[C@@H]2[C@@]3(C)C[C@@H](c4ccoc4)OC(=O)[C@H]3CC[C@]21C [Compound 19, (2S,4aS,6aR,7R,9S,10R,10aS,10bR)-9,10-(dihydroxy)-2-(3-furanyl)dodecahydro-6a,10b-dimethyl-4-oxo-2H-naphtho[2,1-c]pyran-7-carboxylic acid methyl ester]
Ki (κ receptors): ~10 µM | Ki (μ receptors): ~10 µM | Ki (δ receptors): ~10 µM

COC(=O)[C@@H]1C[C@H](OC(C)=O)[C@H](OC(C)=O)[C@H]2[C@@]1(C)CC[C@H]1C(=O)O[C@H](c3ccoc3)C[C@]21C [Compound 20, (2S,4aR,6aR,7R,9S,10R,10aS,10bR)-9,10-(diacetoxy)-2-(3-furanyl)dodecahydro-6a,10b-dimethyl-4-oxo-2H-naphtho[2,1-c]pyran-7-carboxylic acid methyl ester]
fold loss/decrease in affinity at κ receptors compared to 1 (κ receptors): 340 fold | Ki (κ receptors; read-out: Ki at κ receptors): 0.65 µM

COC(=O)[C@@H]1C[C@H](OC(=N)C(Cl)(Cl)Cl)C(=O)[C@H]2[C@@]1(C)CC[C@H]1C(=O)O[C@H](c3ccoc3)C[C@]21C [Compound 21, (2S,4aR,6aR,7R,9S,10aS,10bR)-9-(2,2,2-trichloroacetimidoyloxy)-2-(3-furanyl)-dodecahydro-6a,10b-dimethyl-4,10-dioxo-2H-naphtho[2,1-c]pyran-7-carboxylic acid methyl ester]
fold loss/decrease in affinity at κ receptors compared to 1 (κ receptors): 34 fold | Ki (κ receptors; read-out: Ki at κ receptors): 0.064 µM | Ki (δ receptors; read-out: Ki at δ receptors): 6.47 µM

COC(=O)[C@@H]1C[C@H](OC(=O)Nc2ccccc2)C(=O)[C@H]2[C@@]1(C)CC[C@H]1C(=O)O[C@H](c3ccoc3)C[C@]21C [Compound 22, (2S,4aR,6aR,7R,9S,10aS,10bR)-9-(phenylcarbamoyloxy)-2-(3-furanyl)-dodecahydro-6a,10b-dimethyl-4,10-dioxo-2H-naphtho[2,1-c]pyran-7-carboxylic acid methyl ester]
fold loss/decrease in affinity at κ receptors compared to 1 (κ receptors): 49 fold | Ki (κ receptors; read-out: Ki at κ receptors): 0.093 µM | Ki (μ receptors): 0.016 µM | Ki (δ receptors; read-out: Ki at δ receptors): 0.23 µM

C=CCNC(=O)O[C@H]1C[C@@H](C(=O)OC)[C@]2(C)CC[C@H]3C(=O)O[C@H](c4ccoc4)C[C@]3(C)[C@H]2C1=O [Compound 23, (2S,4aR,6aR,7R,9S,10aS,10bR)-9-(allylcarbamoyloxy)-2-(3-furanyl)-dodecahydro-6a,10b-dimethyl-4,10-dioxo-2H-naphtho[2,1-c]pyran-7-carboxylic acid methyl ester]
fold loss/decrease in affinity at κ receptors compared to 1 (κ receptors): ~300 fold | Ki (κ receptors; read-out: Ki at κ receptors): 0.12 µM
